In PMC12525728, “Safety, Pharmacokinetics, Translational and Molecular Mechanistic Insights on the Prostate Cancer Recurrence Suppressor Pseurotin A” (Molecules, 2025):

Legend:
[1] = tested on: HFD-fed Swiss albino mice; assay: Systemic cholesterol monitoring assay in HFD-fed mice, 90-day oral dosing; type: in vivo; details: 90 days; for reduction of HFD-induced hypercholesterolemia relative to the control: female; for plasma cholesterol relative reduction versus the control group: male
Procedure: Plasmatic cholesterol concentrations in mice were determined using a total cholesterol kit (EnzyChrom^TM Cholesterol Assay Kit ECCH-100 BioAssay Systems, Hayward, CA, USA), adhering to the manufacturer’s instructions. Colorimetric quantitation was measured at 340 nm using a Synergy 2 microplate reader (BioTek Instruments Inc., Winooski, VT, USA). Blood was collected through tail vein extraction on the day before treatment, day 35, and day 90. Blood was quickly collected into green-topped Lithium Heparin 400 µL blood collection tubes (BD Microtainer REF# 365965 Becton, Dickinson and Company, Franklin Lakes, NJ, USA), centrifuged at 13,000× g for 10 min, and the upper layer of plasma was transferred to 1.5 mL Eppendorf tubes (Thermo Fisher Scientific, Waltham, MA, USA) and stored at −20 °C until analysis.
For the 90-day daily oral dosing sub-chronic toxicity study, twenty male and twenty female healthy 8-week-old Swiss albino mice were randomly selected and randomized to […] (n = 5/sex/group). Mice received free access to purified drinking water and high-fat diet (HFD) pelleted rodent chow (11.4% total fat, no. 7004, Envigo/Teklad, Madison, WI, USA) until the day before sacrifice, at which time they were fasted for 8 h and allowed only free access to drinking water. Daily doses of PsA (10, 40, 80 mg/kg body weight) were administered to the mice formulated in <5% DMSO (Mediatech Inc., Manassas, VA, USA) and <0.2% Tween 80 (Croda Inc., Princeton, NJ, USA) at a volume not exceeding 1% of body weight by metal oral gavage (2 mm diameter with stainless steel bite protector, 18-gauge, 3.81 cm long). […] The mice were observed weekly until the completion of the study. The body weights of the mice were measured in grams using a Scout^TM Pro (Ohaus Corp., Pine Brook, NJ, USA) on day 0, 4, 8, 11, 14, 21, 28, 35, 42, 49, 56, 63, 70, 77, 83, and 90 after initial treatment. On day 90, all mice were anesthetized using isoflurane (USP-vaporizer method, Matrix VIP-3000, Covetrus, Dublin, OH, USA, exposure of animals in an anesthesia chamber at 3% isoflurane vaporization rate. Exposure time 2 min). Mice were then euthanized by cervical dislocation according to the 2020 AVMA Guidelines on Euthanasia and dissected. Mice organs (brain, liver, kidney, heart, lungs, spleen) were excised and weighed for histopathological examination. The organs were stored in 10% neutral buffered formalin (Avantor Science Central, Allentown, PA, USA) for 24 h and then transferred to 70% ethanol (AAPER ALCOHOL, Shelbyville, KY, USA). This study was performed following the OECD guideline 408 for the testing of chemicals.

[2] = Chemical stability of PsA in mice plasma (HPLC); type: in vitro ADME; details: for Stability 24 h Room Temperature, Accuracy (%) / Stability −20 °C for 2 Weeks, Accuracy (%) / Stability Freeze-Thaw Cycles, Accuracy (%): mice plasma, n = 3; for Stability Freeze-Thaw Cycles, Accuracy (%): three cycles
Procedure: Chromatographic analysis was conducted on a Shimadzu HPLC system (Shimadzu USA Manufacturing Inc., Canby, OR, USA) equipped with an SPD-20A UV detector, 20 µL manual sampler, LC-20AD pump, a degasser, and an automated temperature-controlled column compartment. The UV detector, column oven, and LC-20AD pump were coupled to the Shimadzu system and controlled through Lab Solutions software, v5.111. Stationary phase separation was carried out using a Shimadzu Shim-Pack GWS C18 column (4.6 × 250 mm, 5 µm) equipped with a Zorbax ODS guard column (4.6 × 12.5 mm, 5 µm) by gradient elution with the column temperature maintained at 35 °C. The UV detector wavelength was set and measured at 254 nm. A constant flow rate of 1.0 mL/min and manual injection of 20 µL were employed throughout the HPLC analysis. A mobile phase consisting of aqueous HCOOH (0.1%, v/v, mobile system A) and HPLC grade CH3CN (mobile system B) utilized with a gradient elution of 30–60% B at 0–5 min, 60–85% B at 5–8 min, 85–95% B at 8–11.5 min, and 95% B at 11.5–18 min. The post-run re-equilibration time was 5 min.
Five µL of the IS ([…]) and 20 µL of 50, 40, 30, 20, 10, 8, and 4 µg/mL PsA standard solutions were combined with 15 µL freshly extracted blank mouse plasma. 300 µL of a 70% EtOAc/30% isopropanol mixture was added and vortexed for 30 s. Following centrifugation at 15,000× g for 10 min, the supernatant was transferred to a 2 mL Eppendorf tube for nitrogen evaporation. The residues were reconstituted in 25 µL HPLC-grade MeOH before being subjected to 30 s sonication followed by centrifugation at 15,000× g for 10 min. Afterwards, the entire sample was immediately injected for RP-HPLC analysis. The mouse plasma samples used in the PK study were subjected to the same extraction method, minus the addition of the PsA standard solutions. After weighing, each mouse organ was reconstituted in 500 µL PBS, then homogenized using the MISONIX Sonicator (Division of QSonica LLC, Newtown, CT, USA). Samples were centrifuged at 15,000× g for 10 min, and the supernatant was collected and transferred to a 2 mL Eppendorf. About 5 µL of IS (25 µL/mL) and 300 µL of a 70% EtOAc/30% isopropanol mixture were added to 100 µL of supernatant and vortexed for 30 s. Following centrifugation at 15,000× g for 10 min, the supernatant was transferred to a 2 mL Eppendorf tube and evaporated under N2. The remains were reconstituted in 40 µL HPLC-grade methanol before being subjected to 30 s sonication followed by centrifugation at 15,000× g for 10 min.
The stability of PsA at room temperature was determined by preparing six separate mouse plasma samples for each concentration. Three samples for each concentration were immediately extracted and injected into the HPLC. The three remaining samples were left on a lab bench protected from light for 24 h before being extracted and injected into the HPLC. The concentrations measured at the 0 and 24 h time points were compared. The stability of PsA after three freeze-thaw cycles was assessed by preparing six separate mouse plasma samples for each concentration. Three samples for each concentration were immediately extracted and injected into the HPLC. The three remaining samples for each concentration were frozen and thawed in a −80 °C freezer three separate times before being extracted and injected into the HPLC. The stability of PsA at −20 °C for 2 weeks was determined by preparing six separate mouse plasma samples for each concentration. Three samples for each concentration were immediately extracted and injected into the HPLC. The three remaining samples were left in a −20 °C freezer for two weeks before being thawed, extracted, and analyzed on the HPLC.

Structure (SMILES): CC/C=C\[C@H](O)[C@H](O)C1=C(C)C(=O)[C@]2(O1)C(=O)N[C@@](OC)(C(=O)c1ccccc1)[C@@H]2O [PsA, pseurotin A]
- reduction of HFD-induced hypercholesterolemia relative to the control ([1]; 10 mg/kg daily oral): −80.7%
- reduction of HFD-induced hypercholesterolemia relative to the control ([1]; 40 mg/kg daily oral): −92.9%
- reduction of HFD-induced hypercholesterolemia relative to the control ([1]; 80 mg/kg daily oral): −85.5%
- plasma cholesterol relative reduction versus the control group ([1]; 10 mg/kg daily oral): −96.1%
- plasma cholesterol relative reduction versus the control group ([1]; 40 mg/kg daily oral): −107.3%
- plasma cholesterol relative reduction versus the control group ([1]; 80 mg/kg daily oral): −116.7%
- Stability 24 h Room Temperature, Accuracy (%) ([2]; 4 µg/mL): 35.2%
- Stability −20 °C for 2 Weeks, Accuracy (%) ([2]; 4 µg/mL): 83.6%
- Stability Freeze-Thaw Cycles, Accuracy (%) ([2]; 4 µg/mL): 94.0%
- Stability 24 h Room Temperature, Accuracy (%) ([2]; 50 µg/mL): 35.5%
- Stability −20 °C for 2 Weeks, Accuracy (%) ([2]; 50 µg/mL): 93.5%
- Stability Freeze-Thaw Cycles, Accuracy (%) ([2]; 50 µg/mL): 108.1%
- Stability 24 h Room Temperature, Accuracy (%) ([2]; 250 µg/mL): 48.8%
- Stability −20 °C for 2 Weeks, Accuracy (%) ([2]; 250 µg/mL): 90.6%
- Stability Freeze-Thaw Cycles, Accuracy (%) ([2]; 250 µg/mL): 100.6%
- concentration loss ([2]; mouse plasma, room temperature, 24 h): over 50%
